Experimental data: ChEMBL document CHEMBL3507680, “University of Dundee, Gates Library screen for HepG2 cell viability”

Test: Human HepG2 cell viability assay in 384 well format
Format: toxicity, cell-based
Design: dose 125 nL, time 70.5 hour; cytotoxicity at 70.5 h: concentration not given beside the values
Conditions: HepG2 cells, read-out: Inhibition

For `O=C(Nc1ccccc1)N1C[C@H]2CC[C@@H]1CN(Cc1ccccc1)C2`, the cytotoxicity at 70.5 h was -4.8%.
For `Cc1cc(N2CCN(C(=O)C(C)n3ccnc3C(C)C)CC2)cc(C)n1` (stereo unspecified), the cytotoxicity at 70.5 h was -4.34%.
`CCc1ncc(C(=O)N2CCCC(c3nccn3CCOC)C2)cn1` (stereo unspecified) showed a cytotoxicity at 70.5 h of -0.318%.
`COC(=O)N1CCCCC1C(=O)N1CCN(c2cccnc2)CC1` (stereo unspecified) gave a cytotoxicity at 70.5 h of 6.34%.
In the case of `OCc1csc(N2CCN(Cc3cccc(F)c3)CC2)n1`, the cytotoxicity at 70.5 h is reported as 22.2%.
In the case of `CCNc1ncc(CN2C[C@@H](C(=O)O)[C@H](C3CC3)C2)cn1`, the cytotoxicity at 70.5 h is reported as -7.25%.
`CCn1c(CN2CCCC2)nnc1C1CCN(S(=O)(=O)CC)CC1` showed a cytotoxicity at 70.5 h of -2.53%.
`CC1Oc2ccc(S(=O)(=O)NCCCn3ccnc3)cc2NC1=O` (stereo unspecified) gave a cytotoxicity at 70.5 h of -3.81%.
`CNS(=O)(=O)c1ccsc1C(=O)OC` showed a cytotoxicity at 70.5 h of -5.92%.
Work on `CNC(=O)C1CC(=O)N(c2cccc(F)c2)C1` (stereo unspecified) yielded a cytotoxicity at 70.5 h of -3.04%.
Compound `CS(=O)(=O)N1CCC(c2nnc(Cn3ccnc3)n2C2CC2)CC1` has a cytotoxicity at 70.5 h of -3.52%.
Compound `CCCN(CCOC)c1nc(C)nc2sccc12` has a cytotoxicity at 70.5 h of 13.4%.
In the case of `COc1ccc(OC)c(C2CCN(C(=O)[C@H]3CC[C@@H](O)CC3)C2)c1` (stereo partly specified), the cytotoxicity at 70.5 h is reported as -9.68%.
Work on `CCOc1cccc(C(C(=O)O)N(C)Cc2cc(C)no2)c1` (stereo unspecified) yielded a cytotoxicity at 70.5 h of -9.85%.
Compound `O=C(Cc1n[nH]c(-c2cncc(Br)c2)n1)NCc1cccnc1` has a cytotoxicity at 70.5 h of -9.48%.
Compound `CN(C)C[C@@H]1CN(C(=O)c2cc(F)ccc2F)C[C@@H]1CO` has a cytotoxicity at 70.5 h of -5.47%.
Work on `CN1CCC2(CC1)CN(C(=O)c1onc3ccccc13)CCCN2C` yielded a cytotoxicity at 70.5 h of 26.8%.
Compound `CCNC(=O)[C@@H]1C[C@H](N)CN1C(=O)CCc1ccccc1Cl` has a cytotoxicity at 70.5 h of -4.67%.
With `CN(C)CC1(O)CCN(C(=O)Cc2ccc(Cl)c(Cl)c2)C1` (stereo unspecified) the cytotoxicity at 70.5 h was 10.5%.
With `CCN(Cc1ccoc1)Cc1nc(COC)no1` the cytotoxicity at 70.5 h was -7.42%.
For `Cc1ccccc1CSc1nc(N)cc(N2CCCC(O)C2)n1` (stereo unspecified), the cytotoxicity at 70.5 h was 0.482%.
With `O=S(=O)(Nc1ccc2c(c1)OCCO2)N1CCCCC1` the cytotoxicity at 70.5 h was -0.954%.
In the case of `C[C@@H]1CN(C(=O)C2(N3CCCCC3)Cc3ccccc3C2)C[C@H](C)O1`, the cytotoxicity at 70.5 h is reported as -9%.
For `O=C1[C@@H]2CN(Cc3cc4ccccc4o3)C[C@]2(C(=O)O)CN1CC1CC1`, the cytotoxicity at 70.5 h was -4.85%.
For `Cc1nnc2sc(-c3cc(C(C)C)n[nH]3)nn12`, the cytotoxicity at 70.5 h was -4.97%.
Work on `O=C(O)c1ccc(CC2CCN(S(=O)(=O)N3CCOCC3)C2)cc1` (stereo unspecified) yielded a cytotoxicity at 70.5 h of -5.44%.
Work on `Cc1ccc(NC(=O)c2coc(C)n2)c(C)c1` yielded a cytotoxicity at 70.5 h of -6.55%.
With `c1ccc2sc(N3CCC4(CCCN4Cc4ncc[nH]4)CC3)nc2c1` the cytotoxicity at 70.5 h was -7.49%.
`CCNc1cc(N2CCN(C(=O)c3ccc(OC)cc3)CC2)nc(C)n1` gave a cytotoxicity at 70.5 h of -2.56%.
With `CNc1ccnc(NCCC(=O)Nc2ccccc2C)n1` the cytotoxicity at 70.5 h was -4.65%.
With `Cc1ncc(CN2CCC(CNS(=O)(=O)C3CC3)C2)cn1` (stereo unspecified) the cytotoxicity at 70.5 h was 13.4%.
With `O=C1COc2ccc(C(=O)NS(=O)(=O)c3ccccc3Cl)cc2N1` the cytotoxicity at 70.5 h was -14.9%.
With `O=C1COc2ccc(C(=O)NS(=O)(=O)c3ccccc3F)cc2N1` the cytotoxicity at 70.5 h was -8.64%.
Compound `CCN(CC1CCOC1)C(=O)c1ccccc1S(=O)(=O)CC` (stereo unspecified) has a cytotoxicity at 70.5 h of 10.2%.
`Cc1nn(C)c(C)c1CCC(=O)N1CCCC(n2cccn2)C1` (stereo unspecified) showed a cytotoxicity at 70.5 h of 21.7%.
In the case of `Cn1ccnc1CN1CCCN(C(=O)c2ccc3[nH]cnc3c2)CC1`, the cytotoxicity at 70.5 h is reported as -8.02%.
With `NC(=O)C1CCN(C(=O)NCc2ccc(-c3ccn[nH]3)cc2)CC1` the cytotoxicity at 70.5 h was -6.11%.
Work on `CC(=O)c1ccc(N2CCN(C(=O)NCc3cc[nH]n3)CC2)cc1` yielded a cytotoxicity at 70.5 h of -2.83%.
Work on `CC(C)(C)c1ncc(C(=O)NCCNC(=O)Cc2ccccc2)s1` yielded a cytotoxicity at 70.5 h of -5.68%.
Compound `CC(C)(C)c1ncc(C(=O)NCCNC(=O)c2cccs2)s1` has a cytotoxicity at 70.5 h of 12.5%.
In the case of `COc1c(CNC2CCC(O)CC2)c(C(C)C)nn1C` (stereo unspecified), the cytotoxicity at 70.5 h is reported as -5.04%.
In the case of `COc1c(CNC2CCN(C(=O)C(C)C)CC2)c(C(C)C)nn1C`, the cytotoxicity at 70.5 h is reported as 19.1%.
Work on `O=C(NCc1cc[nH]n1)N1CCN(c2ncccn2)CC1` yielded a cytotoxicity at 70.5 h of -8.57%.
`Cc1ncc2c(n1)CN(CC(=O)Nc1cccnc1)CC2` showed a cytotoxicity at 70.5 h of 17.5%.
`Cc1ccc(F)cc1NS(=O)(=O)c1cc2c(c(C(=O)O)c1)OCCO2` showed a cytotoxicity at 70.5 h of -5.92%.
Compound `Cc1ccc(C)c(NS(=O)(=O)c2cc3c(c(C(=O)O)c2)OCCO3)c1` has a cytotoxicity at 70.5 h of -8.38%.
For `O=C(O)c1cc(S(=O)(=O)Nc2cccc(F)c2F)cc2c1OCCO2`, the cytotoxicity at 70.5 h was -0.966%.
`Cc1cc(C(=O)N2CCCN(Cc3nccn3C)CC2)no1` showed a cytotoxicity at 70.5 h of 12.6%.
`Cc1noc(C)c1CCC(=O)N1CCCC(n2cccn2)C1` (stereo unspecified) gave a cytotoxicity at 70.5 h of -0.943%.
`CNC(=O)c1ccc(C(=O)N2CCCC(n3ccnc3C)C2)cn1` (stereo unspecified) showed a cytotoxicity at 70.5 h of -3.51%.
Work on `CC(C)CN1CC(C(=O)NCCOc2ccc3c(c2)OCO3)CC1=O` (stereo unspecified) yielded a cytotoxicity at 70.5 h of 3.51%.
With `O=S1(=O)CCC(N(Cc2nc3ccccc3o2)Cc2cccs2)C1` (stereo unspecified) the cytotoxicity at 70.5 h was 19.2%.
Compound `CSc1nccn1-c1cccc(C(=O)NCCC(=O)NC(C)C)c1` has a cytotoxicity at 70.5 h of -3.09%.
Compound `Cc1noc(C)c1CN(Cc1cccs1)C1CCS(=O)(=O)C1` (stereo unspecified) has a cytotoxicity at 70.5 h of 15.7%.
Compound `O=C(CCCOc1ccc(F)cc1F)N1CCCC(n2cccn2)C1` (stereo unspecified) has a cytotoxicity at 70.5 h of -3.24%.
Compound `Cc1cnn(CC2CN(c3ccc(C#N)cn3)CCO2)c1` (stereo unspecified) has a cytotoxicity at 70.5 h of 23.6%.
With `NC(=O)NCC1CCCCN1C(=O)c1cccc(Cl)c1` (stereo unspecified) the cytotoxicity at 70.5 h was -4.19%.
Work on `O=C(CCCc1ccccc1)N1CCC(Nc2cccnn2)CC1` yielded a cytotoxicity at 70.5 h of -4.29%.
For `Cc1ccc(CCC(=O)N2CCC(Nc3cccnn3)CC2)cc1`, the cytotoxicity at 70.5 h was 1.83%.
`Cc1nccn1C1CCCN(C(=O)c2ccc3cc[nH]c3c2)C1` (stereo unspecified) showed a cytotoxicity at 70.5 h of -1.7%.
For `CCn1cc(NC(=O)C2CCN(CC(=O)NC(C)(C)CC)CC2)cn1`, the cytotoxicity at 70.5 h was -2.19%.
For `Cc1nccn1C1CCCN(C(=O)c2ccc3c(c2)OCCCO3)C1` (stereo unspecified), the cytotoxicity at 70.5 h was -0.919%.
Compound `Cc1ccc(NC2CCN(C(=O)Cc3cccs3)CC2)nn1` has a cytotoxicity at 70.5 h of 2.71%.
In the case of `CN(CC(=O)NC1CCOCC1)C1CCCN(c2cccnn2)C1` (stereo unspecified), the cytotoxicity at 70.5 h is reported as -2.74%.
With `Cc1cc(C)n(C2CCCN(C(=O)c3ccc(N(C)C)nc3)C2)n1` (stereo unspecified) the cytotoxicity at 70.5 h was -2.57%.
`Cc1noc(Cl)c1CCC(=O)N1CCC(Nc2cccnn2)CC1` showed a cytotoxicity at 70.5 h of -0.162%.
With `CCCc1n[nH]c(C2CN(C(=O)c3cccc4[nH]ncc34)CCO2)n1` (stereo unspecified) the cytotoxicity at 70.5 h was -3.81%.
`O=C(c1csc(-c2nnc[nH]2)n1)N1CCCCC1Cn1cccn1` (stereo unspecified) showed a cytotoxicity at 70.5 h of 1.45%.
For `O=S1(=O)CCC(N(Cc2nc(-c3ccccn3)no2)Cc2cccs2)C1` (stereo unspecified), the cytotoxicity at 70.5 h was -4.77%.
For `O=C(c1cc(-c2cccs2)on1)N1CCCCC1Cn1cccn1` (stereo unspecified), the cytotoxicity at 70.5 h was -8.41%.
`Cc1ccc(NC2CCN(C(=O)CCCc3cccs3)CC2)nn1` gave a cytotoxicity at 70.5 h of -2.88%.
With `Cc1oc(-c2cccs2)nc1C(=O)N1CCCC1Cn1cccn1` (stereo unspecified) the cytotoxicity at 70.5 h was -6.8%.
`CCCc1n[nH]c(C2CN(C(=O)c3cncnc3C)CCO2)n1` (stereo unspecified) showed a cytotoxicity at 70.5 h of 3.13%.
For `CCc1nc2n(n1)CC(NCc1nc(Cc3ccccc3)no1)CC2` (stereo unspecified), the cytotoxicity at 70.5 h was 25.4%.
For `Cc1noc(CN(Cc2cccs2)C2CCS(=O)(=O)C2)n1` (stereo unspecified), the cytotoxicity at 70.5 h was -3.18%.
Work on `O=C(CCOc1cccc(F)c1)N1CCCC1Cn1cccn1` (stereo unspecified) yielded a cytotoxicity at 70.5 h of -0.422%.
With `O=C(CCCOc1ccccc1)N1CCCC1Cn1cccn1` (stereo unspecified) the cytotoxicity at 70.5 h was -3.8%.
`Cc1cn2c(n1)CCC(NC(=O)CCCn1cncn1)C2` (stereo unspecified) showed a cytotoxicity at 70.5 h of 15.9%.
`CCc1cnc(CN(C(C)=O)C2CCN(CCc3ccccc3)C2)o1` (stereo unspecified) gave a cytotoxicity at 70.5 h of 18.3%.
`CCc1nnc2n1CCN(C(=O)CN(C)C1CC1)C2` gave a cytotoxicity at 70.5 h of -0.0438%.
`CNS(=O)(=O)c1ccc(C(=O)N2CCCCC2c2ccc(C)cc2)o1` (stereo unspecified) gave a cytotoxicity at 70.5 h of -2.53%.
